Laboratory results published in a melting point compilation (Tetko et al.; mined from patent text by program, amines drawn as free bases though some values may be those of a salt).

SMILES	melting point [°C]
Cc1ccc(CN(C)C(=O)c2cnn(C)c2C(=O)Nc2ccn3nc(-c4ccccc4)nc3c2)cn1	110 to 150
Cc1nnc2n1-c1ccccc1C(c1ccc(Cl)cc1)=NC2NN(C(=O)NN)c1ccccc1 (stereo not drawn)	175 to 177
c1ccc(C2SC3(CCNCC3)c3ccccc32)cc1 (stereo not drawn)	142 to 144
CCOC(=O)C(=O)NCC(=O)C(C)(C)C	82 to 85
CC(=O)c1ccc(N)c(C#N)c1	155 to 159
Nc1nc2c([N+](=O)[O-])cc(OC(F)(F)F)cc2s1	260
O=C(CCl)N1CCN(C(=O)CCl)CC1	104 to 107
Cc1nsc(OCC(Cl)(Cl)Cl)c1N	58 to 60
COc1nc(Cl)cc2nccn12	115 to 118
C=CCn1ncc(=O)[nH]c1=O	133
CCOC(=O)c1ccc(-c2ccc(C#N)cc2)cc1	114 to 115
CN(C)C=C(C#N)C(=O)NCc1ccccc1Cl	144 to 146
CC(C)(C)n1ncc(C(N)=O)c1N	193 to 195
N#CC1=C(c2cc3ccccc3s2)Nc2n[nH]cc2C1c1cccc2nonc12 (stereo not drawn)	220
Cc1cccc(C)c1CNc1cc(C2=NCCN2C)cc2c1nc(C)n2C	118 to 119
CCOC(=O)C(C(=O)OCC)c1cccc(C(=O)c2ccc(Cl)cc2)c1[N+](=O)[O-]	96 to 100
CCc1nc2cc(Nc3nccc(-c4ccc(N5CCN(CC)CC5)nc4)n3)ccc2o1	174 to 176
CCN(C=Nc1ccc2c(c1)nc(N(C)C)c1cc(N=CN(CC)CC)ccc12)CC	124 to 126
Cc1ccc(-c2ccccc2C#N)cc1Br	104 to 106
N#Cc1cccc(-n2cnc(-c3ccccn3)n2)c1	194 to 195
CS(=O)(=O)c1ccc(-c2cc(C#N)c(Br)nc2-c2ccc(F)cc2)cc1	230 to 232
CCCCN(Cc1ccc(-c2ccccc2-c2nnn[nH]2)cc1)c1ncccc1C(=O)O	203 to 205
Cc1ccc(Cl)c(Nc2ccccc2-c2n[nH]c(=S)o2)c1Cl	257 to 259
NCCCC[C@H](O)C(=O)O	197 to 199
O=c1[nH]c2c(Cl)cccc2s1	203 to 204
CC(=O)c1cccc(NC(=O)c2ccc3c(c2)CC(COCc2ccccc2)O3)c1O (stereo not drawn)	103 to 105
CN(C)C(=O)c1nc(-c2ccccc2)nc2[nH]c3ccccc3c12	218 to 219

More lines, now with the values ahead:

melting point [°C]	SMILES
240	COc1ccc(C(=O)C#Cc2ccc3c(c2)c(=O)n(Cc2ccc(F)cc2)c(=O)n3C)cc1
147 to 148	Cc1ccc2nc(CO)cc(Cl)c2c1
126 to 128	O=C(CCC12CCC(=O)N1C(=O)CC2)OCc1ccccc1Cl
> 340	CCOC(=O)c1c[nH]c2nc(Nc3ccc(C)c(Cl)c3)nn2c1=O
104	COc1ccc(CN2C(=O)C(C)(c3cc(N(C)C(=O)CN(C)C)ccc3Cl)c3cc(Cl)ccc32)c(OC)c1 (stereo not drawn)
172 to 174	COc1ccc2ccc(C(N)=O)c(OC(C)C)c2c1
184 to 187	CNC(=N)NC(=O)c1nc(Cl)c(NC2CCCC2)nc1N
103	CCS(=O)(=O)c1ccc(C(=O)O)c(Cl)c1CBr
251 to 253	Cc1cc2c3c(cccc3c1)C(=O)N(O)C2=O
200 to 201	COc1cc2c(cc1OC)CCCCC(C(=O)O)=C2
233	CCNC(=O)c1ccc(N2CCN(Cc3cnc4c(c3)NC(=O)C3CCCCN43)CC2)cc1 (stereo not drawn)
167 to 169	CS(=O)(=O)Nc1ccc(C(=O)O)cc1Oc1ccc(F)cc1F
66 to 68	CCCc1c(O)ccc(C(=O)OC)c1O
155 to 157	CCCCCCCCCCc1ccc(NC(=O)c2cnc(C(=O)NCC(=O)OCC)c(OC)c2)cc1
130 to 131	COCCO[C@H]1c2ccn3c(C)c(C)nc3c2N[C@@H](c2ccccc2)[C@@H]1O
139	COc1cc(C)cc(OC)c1NC(=O)CC(C)C
